Test results reported in patent publication US10570178B2, “Selective delivery molecules and methods of use” (Avelas Biosciences, Inc., priority 2011, dated 2020).
Values belong to the compound of their own block, whether it stands above or below them. Numbered stars: 1 amine (or outer) side, 2 acyl side, 3 side chain; on linkers, the order of the positions; unused ones are H or OH. Square brackets hold non-standard residues; d marks the D form. Ends that are not written are not given here. Cys(Me) = S-methyl-cysteine, CSC[C@H](N[*:1])C(=O)[*:2]; Phe(4-Ac) = CC(=O)c1ccc(C[C@H](N)C(=O)O)cc1; AEA = NCCOCC(=O)O

Assays:
[1] = test system: HT-1080 tumor homogenates; experiment: Fluorogenic response from tumor homogenates (gel electrophoresis); assay type: biochemical, mouse
Protocol: FIG. 4 exemplifies fluorescence enhancement of selective delivery molecule SDM-10 upon cleavage by tumor homogenates. Selective delivery molecule 10 (SDM-10) was cleaved with HT-1080 tumor homogenates. 1 nM MMP-9 or 10 uL tumor tissue homogenates (TH2 and TH3) were mixed with 1 uM […] in 100 uL buffer for 24 h at 37° C. GM6001 is a general broad spectrum inhibitor of MMPs. […] Uncleaved SDM-10 is nonfluorescent due to efficient quenching (second column from left).
HT1080 cells (Cat. # CCL-121; American Type Culture Collection, Va., USA) were grown under exponential growth conditions in humidified atmosphere of 5% CO2 in air at 37° C. until reaching 80-100% confluence before harvesting for mouse implantation. Each nude mouse was hand restrained and injected with 2×10^6 HT-1080 cells into the mammary fat pad using a 25-G needle. HT-1080 tumors were harvested when they had reached 100-200 mm^3 in size (typically 1-2 weeks post-tumor cells implantation).
HT-1080 tumors were homogenized using ultrasonic disruption. 1 nM MMP-9 or 10 μl, tumor tissue homogenates (TH2 and TH3) were mixed with 1 μM SDM-10 in 100 μL buffer for 24 h at 37° C. Selective delivery molecule 6 was used as a fluorescent control of similar size to intact SDM-10. The samples were loaded on a polyacrylamide gel and separated using electrophoresis. […] GM6001 is a general broad spectrum inhibitor of MMPs.

[2] = target: T1, matrix metalloproteinase-2 (MMP-2) (Homo sapiens, UniProt P08253); experiment: Enzyme dependent fluorescence enhancement and color change: cleavage of FRET SDM by MMP-2; assay type: biochemical; details: 1 μM SDM
T1 sequence (P08253 110-660): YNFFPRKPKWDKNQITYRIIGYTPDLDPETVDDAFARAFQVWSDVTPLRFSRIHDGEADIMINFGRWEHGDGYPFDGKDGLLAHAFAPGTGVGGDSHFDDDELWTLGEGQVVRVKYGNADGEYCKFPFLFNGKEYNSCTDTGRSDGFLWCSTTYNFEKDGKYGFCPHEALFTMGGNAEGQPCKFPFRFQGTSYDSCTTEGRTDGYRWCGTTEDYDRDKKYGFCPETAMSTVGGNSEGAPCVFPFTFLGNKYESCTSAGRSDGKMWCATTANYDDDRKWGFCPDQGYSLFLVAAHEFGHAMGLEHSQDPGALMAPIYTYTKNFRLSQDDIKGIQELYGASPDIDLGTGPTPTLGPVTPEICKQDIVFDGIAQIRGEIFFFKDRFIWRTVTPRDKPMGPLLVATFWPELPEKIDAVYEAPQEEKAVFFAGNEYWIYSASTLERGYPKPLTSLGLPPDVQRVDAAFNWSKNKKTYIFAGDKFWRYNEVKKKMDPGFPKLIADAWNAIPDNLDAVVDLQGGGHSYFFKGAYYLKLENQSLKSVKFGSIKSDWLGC
Protocol: FIG. 2 exemplifies ratiometric fluorescence changes of selective delivery molecules. In this figure, SDM-9 was cleaved with 1 nM MMP-2 enzyme. The increase of donor (left panel) and decrease in acceptor (right panel) fluorescence is indicative of decreased FRET after peptide cleavage.
Selective delivery molecule 9 was dissolved in TCNB buffer (50 mM Tris, pH 7.5, with 10 mM calcium chloride, 150 mM sodium chloride, and 0.05% BRIJ 35) at room temperature at 1 μM. Fluorescence spectra were recorded on F-2500 fluorescence spectrometer. The Cy5 fluorescence donor was excited using 625 nm light and the emission was scanned from 660 to 800 nm. Peptide cleavage was initiated with addition of matrix metalloproteinase-2 (MMP-2) at a final concentration of 1 nM. The cleavage reaction was complete within 2 hour and the fluorescence spectra indicated FRET disruption and a large 8-fold increase the Cy5 donor emission and 2-fold decrease in the Cy7 emission. The actual intrinsic fluorescence decrease of Cy7 is larger however it is masked by the Cy5 long wavelength shoulder.

[3] = test system: HT-1080 xenograft model; experiment: In vivo imaging assay for tumor contrast; set-up: species or system mouse
Protocol: HT-1080 xenograft model was generated as described in Example 14 and used to evaluate the ability of molecules to provide in vivo tumor fluorescence contrast compared to surrounding tissue. Fluorescent conjugates were tested in HT-1080 tumor-bearing mice once the tumors had reached 100-200 mm^3 in size (typically 1-2 weeks post-tumor cells implantation). Conscious HT-1080 tumor-bearing mice were restrained using a rotating tail injector (Cat. # RTI; Braintree Scientific, MA, USA) and dosed intravenously (tail vein) with the test compound at between 0.1 and 5 nanomoles per mouse in 100 uL saline solution. In preparation for imaging, mice were lightly anesthetized with a mixture of ketamine/xylazine (Cat. # K-113; Sigma, Aldrich, Mo., USA) given intraperitoneally (1 μL/gram body weight) to minimize movement.
Serial whole-body imaging (tumor included) was done using a whole-animal fluorescent visualization imaging system or Olympus stereo fluorescent microscope. The mice were positioned on their backs and imaging was performed from the top to image the ventral side of the animal. […] Contrast was calculated using the following equation: Contrast=(Fluorescence intensity of tumor−Fluorescence intensity of contralateral chest tissue)/Intensity of contralateral chest tissue).
Contrast greater than 0.4 in the whole animal is easily detected by eye in the whole animal image and is good contrast. […]

[4] = test system: Murine 4T1 tumor model, metastatic cervical lymph nodes; experiment: In vivo detection of cancer metastases to lymph node, emission ratio contrast; set-up: species or system mouse; details: metastatic vs non-metastatic lymph nodes, peritumoral administration
[5] = target: MMP-9 (Homo sapiens, UniProt P14780); experiment: Enzyme dependent fluorescence enhancement: cleavage of quenched SDM by MMP-9; assay type: biochemical; details: 1 μM SDM
Protocol: FIG. 3 exemplifies fluorescence enhancement of selective delivery molecules after protease cleavage. SDM-10 was cleaved with 1 nM MMP-9 enzyme in buffered saline. The Cy5 fluorescence increases >100 fold after peptide cleavage because the quencher dyes is no longer intramolecularly attached to Cy5 and it can no longer efficiently quench Cy5.
Selective delivery molecule 10 was dissolved in TCNB buffer (pH 7.5) at room temperature at 1 μM. Fluorescence spectra were recorded on F-2500 fluorescence spectrometer. Excitation of the Cy5 fluorescence donor was excited at 625 nm and the emission was measured at 669 nm. Peptide cleavage was initiated with addition of MMP-9 at a final concentration of 1 nM. The cleavage reaction was complete within 2 hour and the fluorescence was enhanced >100-fold upon protease cleavage, FIG. 3.

[6] = 1 nM MMP-2, TCNB buffer pH 7.5, excitation 625 nm

Sequence of MMP-9 (P14780 94-707): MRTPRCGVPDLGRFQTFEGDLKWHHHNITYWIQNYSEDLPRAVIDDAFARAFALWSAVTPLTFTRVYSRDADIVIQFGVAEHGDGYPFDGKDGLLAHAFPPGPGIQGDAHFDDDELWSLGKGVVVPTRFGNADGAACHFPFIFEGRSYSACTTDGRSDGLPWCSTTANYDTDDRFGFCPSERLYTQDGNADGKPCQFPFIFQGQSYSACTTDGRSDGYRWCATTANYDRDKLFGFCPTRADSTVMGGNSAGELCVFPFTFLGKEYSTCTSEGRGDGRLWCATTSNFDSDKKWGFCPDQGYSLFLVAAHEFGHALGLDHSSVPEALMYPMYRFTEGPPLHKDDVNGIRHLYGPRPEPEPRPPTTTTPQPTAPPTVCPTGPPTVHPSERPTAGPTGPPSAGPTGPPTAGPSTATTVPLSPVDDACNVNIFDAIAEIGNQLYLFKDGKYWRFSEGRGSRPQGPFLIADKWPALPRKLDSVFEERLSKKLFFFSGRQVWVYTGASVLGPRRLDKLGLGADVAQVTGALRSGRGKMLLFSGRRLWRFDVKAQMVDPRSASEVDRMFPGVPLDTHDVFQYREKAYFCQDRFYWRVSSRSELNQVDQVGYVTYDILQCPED

Compound: CNC(=O)[C@H](Cc1c[nH]c2ccccc12)NC(=O)[C@@H](CC(=O)NO)CC(C)C [GM6001, reference compound]
effect on tumor homogenate cleavage of SDM-10 ([1]; MMP inhibitor added to HT-1080 homogenate with SDM-10): inhibits cleavage

decrease in Cy7 emission after cleavage [2, 6]: 2 fold
increase in Cy5 donor emission after cleavage [2, 6]: 8 fold
time to complete cleavage reaction ([2]; 1 nM MMP-2, room temperature): ≤ 2 h
Compound: SDM-9: prepared analogously to SDM-25 from peptide P-3; Cy5 donor and Cy7 FRET acceptor ([dE][dE][dE][dE][dE][Phe(4-Ac)][AEA]PLG[Cys(Me)]AG[dR][dR][dR][dR][dR][dR][dR][dR][dC]-NH2; not fully specified (some residues, N-terminus))
Time to maximum contrast ([3]; HT-1080 xenograft, IV dosing): Fast (4 < fast < 12)
Maximum Contrast ([3]; tumor vs contralateral chest tissue fluorescence, IV 0.1-5 nanomoles per mouse, imaged 1-24 hours after injection): High (≥0.9 = high)
Peritumor Maximum Contrast [4]: Low (Low <20%)

Cy5 fluorescence enhancement upon protease cleavage ([5]; 1 nM MMP-9, excitation 625 nm, emission 669 nm): > 100 fold
time to complete cleavage reaction ([5]; 1 nM MMP-9, room temperature): ≤ 2 h
Compound: SDM-10: prepared analogously to SDM-25 from peptide P-3; Cy5 fluorophore with dye quencher ([dE][dE][dE][dE][dE][Phe(4-Ac)][AEA]PLG[Cys(Me)]AG[dR][dR][dR][dR][dR][dR][dR][dR][dC]-NH2; numbers in words are those of the source; also: Cy5 fluorophore, quencher dye and mPEG carrier attached, sites not given here)
cleavage by HT-1080 tumor homogenates ([1]; 1 μM SDM, 10 μL homogenate in 100 μL buffer, 24 h, 37° C.): cleaved and becomes highly fluorescent
fluorescence of intact, uncleaved form on gel ([1]; polyacrylamide gel): essentially non-fluorescent
